Values of other authors, collected in patent publication US12097177B2, “Therapeutic method for cat with chronic kidney disease” (Toray Industries, Inc., priority 2021, dated 2024).
Counter-ions that a name gives are not always drawn. Like-named read-outs stand apart in the source and are kept apart here.

What was measured:
[1] = humans; cited from earlier work
[2] = rats; cited from earlier work
feline CKD [3] = details: in vivo; cited from earlier work
feline CKD [4] = details: in vivo; cited from earlier work; remark: listed apart in the source
feline CKD [5] = details: in vivo; cited from earlier work; remark: listed apart in the source

SMILES: CC#CC[C@H](C)[C@H](O)/C=C/[C@@H]1[C@H]2c3cccc(CCCC(=O)[O-])c3O[C@H]2C[C@H]1O.[Na+] (single isomer, unassigned) [BPS-314d]
- AUC of plasma BPS-314d when BPS is administered (fraction) [1]: ¼
- Cmax of plasma BPS-314d when BPS is administered (fraction) [1]: ¼
- AUC of plasma BPS-314d when BPS is administered (fraction) [2]: ¼
- Cmax of plasma BPS-314d when BPS is administered (fraction) [2]: ¼

SMILES: CCOC(=O)[C@H](CCc1ccccc1)N[C@H]1CCc2ccccc2N(CC(=O)O)C1=O [Benazepril hydrochloride, benazepril hydrochloride]
- progression of feline CKD stage (feline CKD [3]): has not been found to inhibit progression of feline CKD stage
- proteinuria (feline CKD [3]): lower the severity of proteinuria
- serum creatinine (feline CKD [3]): inhibit elevation in serum creatinine

SMILES: CN1N=C2CCN(C(=O)[C@@H](COCc3ccccc3)NC(=O)C(C)(C)N)C[C@@]2(Cc2ccccc2)C1=O [capromorelin]
- body weight loss (feline CKD [4]): inhibit body weight loss
- overall survival rate or observed survival rate (feline CKD [4]): no improvement in the overall survival rate or the observed survival rate of feline CKD has been demonstrated

SMILES: CCCc1nc2c(C)cc(-c3nc4ccccc4n3C)cc2n1Cc1ccc(-c2ccccc2C(=O)O)cc1 [telmisartan]
- proteinuria (feline CKD [5]): improve proteinuria of feline CKD
